According to patent publication US11680054B2, “Bronchodilating hetero-linked amides” (Arcede Pharma AB, priority 2018, dated 2023):
In brackets after ≈: the same amount, converted by molar mass.

Columns and labels:
[1] = Solubility in phosphate buffer (pH 7.4); type: physicochemical; details: aqueous buffer, thermodynamic from solid; phosphate buffer pH 7.4, agitated 20 hours at 37° C.
Method: The solubilities of 1-(5,8-Dichloro-6,7-dihydroxy-3,4-dihydroisoquinolin-2(1H)-yl)-2-(6-(trifluoromethyl)pyridin-3-ylthio)ethenone (example 1) and the known compound 1-(5,8-Dichloro-6,7-dihydroxy-3,4-dihydroisoquinolin-2(1H)-yl)-2-(6-(trifluoromethyl)pyridine-3-yloxy)ethanone in phosphate buffer (pH 7.4) were determined.
Briefly, 1 mg of the study compounds were weighted into glass vials (two replicates). 2 ml of pH 7.4 phosphate buffer was added into the vials and vials were then agitated (1300 rpm) 20 hours at 37° C. Samples were filtrated using 0.45 μm PVDA syringe filters before analysis. 10 μg/ml and 500 μg/ml standard solutions in acetonitrile:ultra-pure water were prepared using 10 mM DMSO-stock solution. Samples and standards were analyzed from glass vials. The samples were analyzed using UPLC/PDA immediately after preparation. A Waters Acquity ultra high-performance liquid chromatographic (UPLC) system with autosampler, vacuum degasser, photo-diode-array detector (Acquity PDA) and column oven was used.

[2] = system: human peripheral blood mononuclear cell (PBMC); assay: Human PBMC in vitro model, LPS induced MCP-1 and LTB-4 levels; type: cell-based; details: for LTB-4 reduction (%) / MCP-1 reduction (%): LPS 0.1 μg/ml, 24 h
Method: Cryopreserved PBMC's (SeraCare, #72001) are thawed, washed with culture media (RPMI-1640 from Invitrogen, #61870-036+10% heat inactivated fetal bovine serum from Invitrogen, #10082-147+100 U/ml penicillin+100 μg/ml streptomycin) and tested for viability using Trypan blue (PBMC viability=96%). Cells are then resuspended to 1×10^6 cells/ml in culture media and 0.5 ml plated into 24 well culture plates (5×10^5 cells/well) before incubation for 30 minutes at 37° C. with 5% C02 prior to addition of a compound to be assessed (10 μM) or dexamethasone (1 μM). One hour thereafter, LPS (0.1 μg/ml, Salmonella abortus equi, Sigma, #L1887) are added and the cells are incubated for another 24 h before collection of the cell culture supernatants, which are assayed for the presence of MCP-1 and LTB4.
MCP-1 levels are quantified employing a Luminex-based assay according the manufacturer's instructions. Data are collected using a Luminex 100 (Luminex Corporation, Austin, Tex.). Standard curves are generated using a 5-parameter logistic curve fitting equation weighted by 1/y (StarStation V 2.0; Applied Cytometry Systems, Sacramento, Calif.). Each sample reading are interpolated from the appropriate standard curve. Calculated concentrations are multiplied by the appropriate dilution factor when necessary.
LTB4 levels are quantified by ELISA following the manufacturer's instructions. Absorbance readings are detected using a ThermoMax microplate reader (Molecular Devices). Standard curves are generated using a 4-parameter logistic curve fitting equation (SoftMax Pro 4.7.1; Molecular Devices). Each sample reading are interpolated from the appropriate standard curve. Duplicate interpolated sample values are averaged and standard deviations are calculated. Calculated concentrations are multiplied by the appropriate dilution factor.
The reults in lowering MCP-1 and LTB-4 levels compared to vehicle (negative control) and 1 μM dexamethasone (positive control) are given below.

[3] = system: human bronchiols; assay: Leukotriene D4 induced contraction of human bronchus preparations, in vitro model; details: pre-treatment with compound at 10 μM; Leukotriene D4 (10 nM) induced contraction of human bronchiols
Method: (§1) The usefulness of the compounds, as defined in the preceding embodiments, in treating, pretreating, revoking, mitigating, alleviating and/or preventing a condition of the respiratory apparatus characterized by bronchoconstriction, were evaluated in a complex and relevant in vitro model. The in vitro model was in accordance with the in vitro model disclosed in US 2006-0040254 A1 and Skogvall, S., Berglund, M., Dalence-Guzmán, M. F., Svensson, K., Jönsson, P., Persson, C. G. A and Sterner, O., Pulmonary Pharmacology and Therapeutics, vol 20:3, 2007, p. 273-280. All references disclosed herein are hereby incorporated in their entirety by reference.
In short, lung tissue was obtained from patients undergoing lobectomia or pulmectomia due to lung carcinoma. From the bronchus of this tissue were rectangular oblong preparations obtained. The contraction induced by inflammatory mediators, such as Leukotriene D4, histamine, prostaglandin D2 or acetylcholine, in the presence and absence of the compound to be evaluated, were compared.
as §1, with “embodiments herein,” for “preceding embodiments,”, “treating,” for “treating, pretreating,”, “model, which is described” for “model. The in vitro model was in accordance with the in vitro model disclosed”
The remaining contraction, after pre-treatment with various compound examples at a concentration of 10 μM, of human bronchiols after Leukotriene D4 (10 nM) induced contraction according to the in vitro method described herein above are tabulated below.

[4] = system: male Sprague Dawley rats; assay: Carbamylcholine-induced bronchospasm in anaesthetised rats (Konzett-Rossler method); type: in vivo; details: rat; for Bronchodilatating effect on carbamylcholine chloride induced bronchoconstriction: intra-tracheal, administered at 6 mM, smaller increase in pulmonary resistance compared to vehicle; for Total pulmonary resistance increase from baseline post carbamylcholine chloride challenge, Average: single intra-tracheal nebulization of 100 μl at 6 mM, 30 min before carbamylcholine chloride 275 μg/kg iv
Method: The bronchocondilatator effect of example 1 and (2E)-1-(5,8-dichloro-3,4-dihydro-6,7-dihydroxy-2(1H)-isoquinolinyl)-3-[6-(trifluoromethyl)-3-pyridinyl]-2-propen-1-one was evaluated using the Konzett-Rossler method (cf. Konzett H, Rössler R (1940) Versuchsanordung zu Untersuchungen an der Bronchialmuskulatur. Naunyn-Schmiedeberg's Arch Exp Path Pharmakol 192:71-74) in the anaesthetised rat following single intra-tracheal administration.
The study involved male Sprague Dawley rats, weighing between 291.1 g and 347.7 g on the day of the test.
Animals were put on to a water-only fast the day prior to the test. On the day of the test, animals were anaesthetised using sodium pentobarbital at a dose of 60 mg/kg by intraperitoneal route in a volume of 1 mL/kg, then at 2 mg/mL by the intravenous route at a rate of 10 mL/kg/hour throughout the test. The trachea was quickly cannulated to enable artificial respiration. The animals were ventilated with an air flow of approximately 1 mL per 100 g at a rate of 54 cycles/minute. Total pulmonary resistance was measured continuously using a pressure transducer, fitted to a side branch of the tracheal cannula. Arterial blood pressure and heart rate were obtained by placing the telemetric pressure sensor of telemetric transmitter HD-S11 in the carotid artery. A jugular vein was cannulated for the intravenous administration of carbamylcholine chloride. The temperature of the animal was kept between 36.0° C. and 39.3° C. using an electric blanket. At the end of the surgical phase, animals were pre-medicated with a solution of pancuronium bromide at 0.2 mg/mL by the intravenous route at a rate of 10 mL/kg/hour throughout the test to avoid spontaneous respiration. Ventilatory flow was adjusted in such way as to obtain a baseline stabilisation of the pulmonary pressure resistance between 6.5 to 10.5 mmHg (i.e. approximately between 10 to 15% of maximum pulmonary resistance). About 15 minutes after the end of the surgical phase and stabilisation of the pulmonary pressure signal, the animals were dosed with: • 1. Example 1; • 2. (2E)-1-(5,8-dichloro-3,4-dihydro-6,7-dihydroxy-2(1H)-isoquinolinyl)-3-[6-(trifluoromethyl)-3-pyridinyl]-2-propen-1-one; or • 3. Their vehicle
by intra-tracheal nebulization in a volume of 100 μl using a Microsprayer aerosolizer (Penncentury).
Thirty minutes later, carbamylcholine chloride at 275 μg/kg was administered using an infusion pump in a volume of 3.33 mL/kg over a 5-minute period. Total pulmonary resistance, mean, systolic and diastolic arterial blood pressure and heart rate were continuously recorded over the test.
Example 1 was formulated by dissolving 5.5 mg in 2015 μl vehicle (200 mM (2-hydroxypropyl)-β-cyclodextrin, 49 mM L-lysine, 6.2 mM L-ascorbic acid in MilliQ water). […]

[5] = dexamethasone 1 μM (positive control)
[6] = compound 10 μM, compared to vehicle

In the case of `O=C(COc1ccc(C(F)(F)F)nc1)N1CCc2c(Cl)c(O)c(O)c(Cl)c2C1` [1-(5,8-Dichloro-6,7-dihydroxy-3,4-dihydroisoquinolin-2(1H)-yl)-2-(6-(trifluoromethyl)pyridine-3-yloxy)ethanone, reference compound], the solubility at 20 h [1] was 76.7 µg/mL (≈ 175 µM).

For `C[C@@H]1C[C@H]2[C@@H]3CCC4=CC(=O)C=C[C@]4(C)[C@@]3(F)[C@@H](O)C[C@]2(C)[C@@]1(O)C(=O)CO` [Dexamethasone, dexamethasone, reference compound], the “LTB-4 reduction (%)” value [2, 5] was 23.4% and the “MCP-1 reduction (%)” value [2, 5] was 15.5%.

In the case of `O=C(C1CCCN(c2ccc(F)cn2)C1)N1CCc2c(Cl)c(O)c(O)c(Cl)c2C1` (stereo not drawn) [Example 4, (5,8-Dichloro-6,7-dihydroxy-3,4-dihydroisoquinolin-2(1H)-yl)(1-(5-fluoropyridin-2-yl)piperidin-3-yl)methanone], the “Remaining contraction (%)” value [3] was 51%.

With `O=C(/C=C/c1ccc(C(F)(F)F)nc1)N1CCc2c(Cl)c(O)c(O)c(Cl)c2C1` [(2E)-1-(5,8-dichloro-3,4-dihydro-6,7-dihydroxy-2(1H)-isoquinolinyl)-3-[6-(trifluoromethyl)-3-pyridinyl]-2-propen-1-one, reference compound] the “Bronchodilatating effect on carbamylcholine chloride induced bronchoconstriction” value [4] was “had a bronchodilatating effect” and the “Total pulmonary resistance increase from baseline post carbamylcholine chloride challenge, Average” value [4] was 2.86 mmHg.

For `Cc1cc(C(F)(F)F)cc(SCC(=O)N2CCc3c(Cl)c(O)c(O)c(Cl)c3C2)n1` [Example 3, 1-(5,8-Dichloro-6,7-dihydroxy-3,4-dihydroisoquinolin-2(1H)-yl)-2-(6-methyl-4-(trifluoromethyl)pyridin-2-ylthio)ethanone], the “Remaining contraction (%)” value [3] was 16%.

In the case of `O=C(CSc1ccc(C(F)(F)F)nc1)N1CCc2c(Cl)c(O)c(O)c(Cl)c2C1` [Example 1, 1-(5,8-Dichloro-6,7-dihydroxy-3,4-dihydroisoquinolin-2(1H)-yl)-2-(6-(trifluoromethyl)pyridin-3-ylthio)ethanone], the solubility at 20 h [1] was 16.6 µg/mL (≈ 36.6 µM), the “Remaining contraction (%)” value [3] was 7% and the “Reduction of inflammatory markers (MCP-1 and LTB-4)” value ([2]; 10 μM, LPS stimulated PBMC) was “significant reduction”. The “LTB-4 reduction (%)” value [2, 6] was 20.7%, the “MCP-1 reduction (%)” value [2, 6] was 70.8% and the “Bronchodilatating effect on carbamylcholine chloride induced bronchoconstriction” value [4] was “had a bronchodilatating effect”. For the same compound, the “Total pulmonary resistance increase from baseline post carbamylcholine chloride challenge, Average” value [4] was 2.33 mmHg.

For `Cc1nc(C(F)(F)F)ccc1SCC(=O)N1CCc2c(Cl)c(O)c(O)c(Cl)c2C1` [Example 2, 1-(5,8-Dichloro-6,7-dihydroxy-3,4-dihydroisoquinolin-2(1H)-yl)-2-(2-methyl-6-(trifluoromethyl)pyridin-3-ylthio)ethanone], the “Remaining contraction (%)” value [3] was 14%.
